Test results from patent US20260325417A1, “TOPICAL SKIN COMPOSITION CONTAINING 1,3-PROPANEDIOL AS ACTIVE INGREDIENT FOR MAINTAINING MICROBIOME BALANCE IN SKIN” (ACTIVON CO.,LTD., priority 2022, published 2026).

Assays:
[1] = system: S. epidermidis; assay: Comparison of diol compounds, growth of beneficial bacteria; type: cell-based, Staphylococcus epidermidis; set-up: key to Effect on the growth of beneficial bacteria (S. epidermidis): ++: Growth promotion; +: No effect; −: Growth inhibition; − −: 50% or more growth inhibition
Source text: (§1) FIG. 4 illustrates the results of a comparative analysis of the effects of diol compounds, specifically 1,3-propanediol, 2-methyl-1,3-propanediol, 1,3-butanediol, 2,3-butanediol, 1,2-pentanediol, and 1,2-hexanediol on the growth of harmful bacteria (upper graph) and beneficial bacteria (lower graph). FIG. 4A: 1,3-propanediol, FIG. 4B: 2-methyl-1,3-propanediol; FIG. 4C: 1,3-butanediol; FIG. 4D: 2,3-butanediol; FIG. 4E: 1,2-pentanediol; FIG. 4F: 1,2-Hexanediol.
(§2) • 1) Staphylococcus epidermidis ATCC 12228 and Staphylococcus aureus ATCC 6538 strains were obtained from ThermoFisher Scientific and cultured in tryptic soy broth (culture conditions: 32° C. for 18 hours). After culturing, they were diluted with 0.85% NaCl to adjust the absorbance (600 nm) to 0.5-0.6. • 2) 1,3-propanediol was obtained from Sigma-Aldrich. • 3) 2-methyl-1,3-propanediol, 1,3-butanediol, 2,3-butanediol, 1,2-pentanediol, and 1,2-hexanediol were all obtained from Sigma-Aldrich. • 4) Fructan was obtained from Sigma-Aldrich. • 5) Yeast extract was obtained from Sigma-Aldrich.

[2] = system: S. aureus; assay: Comparison of diol compounds, growth of harmful bacteria; type: cell-based, Staphylococcus aureus
Source text: as §1, §2

[3] = system: Staphylococcus aureus ATCC 6538; assay: Growth of harmful skin bacteria, single culture with 1,3-propanediol (absorbance 600 nm); type: cell-based; settings: for Effect on the growth of harmful bacteria (S. aureus): absorbance 600 nm, 2 to 16 hours vs control
Protocol: as §2
The effect of 1,3-propanediol on the growth of Staphylococcus aureus ATCC 6538 was analyzed.
(§3) For this purpose, 1,3-propanediol was diluted with 10% tryptic soy broth to prepare concentrations of 0.05, 0.1, 0.2, 0.5, 1.0, 3.0, 5.0, 10, 20, and 25 wt %.
After adding 1,3-propanediol prepared at each concentration to 10% tryptic soy broth, S. aureus was inoculated to achieve a concentration of 1% (v/v).
(§4) Afterwards, the cells were cultured at a temperature of 32° C. for 24 hours, and the absorbance (600 nm) was measured at 2-hour intervals to analyze the growth of beneficial skin bacteria.
(§5) At this time, 10% tryptic soy broth to which 1,3-propanediol was not added was set as a control group.
The criteria for determining the effect on the growth of harmful bacteria were as follows: when the absorbance (600 nm) was measured while culturing for 2 to 16 hours after inoculation of S. aureus, if the absorbance was lower than that of 10% tryptic soy broth (control group) to which 1,3-propanediol was not added, it was determined that the growth of S. aureus was inhibited. If there was no difference in absorbance, it was determined that there was no effect.

[4] = system: S. epidermidis; assay: Combination of 1,3-propanediol and yeast extract, growth of beneficial bacteria; type: cell-based, Staphylococcus epidermidis; settings: 1,3-propanediol 1.5 wt %; yeast extract 0.00 wt %
[5] = system: Staphylococcus epidermidis ATCC 12228; assay: Combination of 1,3-propanediol and fructan, growth of beneficial bacteria; type: cell-based; settings: 1,3-propanediol 1.5 wt %; fructan 0.00 wt %
Protocol: as §2
(§6) In order to evaluate the effect of 1,3-propanediol and fructan on the skin microbiome, the effect on the growth rate of Staphylococcus epidermidis ATCC 12228, a representative beneficial skin bacterium, and Staphylococcus aureus ATCC 6538, a harmful skin bacterium, was confirmed. Staphylococcus epidermidis ATCC 12228 and Staphylococcus aureus ATCC 6538 were cultured in tryptic soy broth at 32° C. for 18 hours or more, then diluted with 0.85% NaCl and adjusted to have an absorbance (600 nm) of 0.5 to 0.6.
(§7) S. epidermidis and S. aureus prepared above were inoculated to achieve a concentration of 1% (v/v) in 10% tryptic soy broth to which 1,3-propanediol was added at a fixed concentration of 1.5 wt % and fructan was added at each concentration in the table below. […]

[6] = system: Staphylococcus aureus ATCC 6538; assay: Combination of 1,3-propanediol and fructan, growth of harmful bacteria; type: cell-based; settings: 1,3-propanediol 1.5 wt %; fructan 0.00 wt %
Protocol: as §2, §6, §7

[7] = system: Staphylococcus epidermidis ATCC 12228; assay: Growth of beneficial skin bacteria, single culture with 1,3-propanediol (absorbance 600 nm); type: cell-based; settings: for Effect on the growth of beneficial bacteria (S. epidermidis): absorbance 600 nm, 2 to 16 hours vs control
Protocol: as §2
The effect of 1,3-propanediol on the growth of Staphylococcus epidermidis ATCC 12228 was analyzed.
as §3
After adding the prepared 1,3-propanediol at each concentration to 10% tryptic soy broth, S. epidermidis was inoculated to achieve a concentration of 1% (v/v).
as §4, §5
The criteria for determining the effect on the growth of beneficial bacteria were as follows: when the absorbance (600 nm) was measured while culturing for 2 to 16 hours after inoculation of S. epidermidis, if the absorbance was higher than that of 10% tryptic soy broth (control group) to which 1,3-propanediol was not added, it was determined that the growth of S. epidermidis was promoted. If there was no difference, it was determined that there was no effect, and if the absorbance was lower, it was determined that there was inhibition. […] As a result, it can be seen that when the concentration of 1,3-propanediol is in a specific range exceeding 0.05 wt % and less than 20 wt %, it promotes the growth of S. epidermidis.

[8] = system: S. aureus; assay: Combination of 1,3-propanediol and yeast extract, growth of harmful bacteria; type: cell-based, Staphylococcus aureus; settings: 1,3-propanediol 1.5 wt %; yeast extract 0.00 wt %
Protocol: as §2, §6, §7

[9] = when the concentration increases

## CCCC(O)CO (stereo not shown) [1,2-pentanediol]
[1]; diol compound 0.1 wt %
  Effect on the growth of beneficial bacteria (S. epidermidis): ++
[1]; diol compound 1 wt %
  Effect on the growth of beneficial bacteria (S. epidermidis): −
[1]; diol compound 5 wt %
  Effect on the growth of beneficial bacteria (S. epidermidis): − − (50% or more growth inhibition)
[1]; diol compound 10 wt %
  Effect on the growth of beneficial bacteria (S. epidermidis): − − (50% or more growth inhibition)
[1]; diol compound 20 wt %
  Effect on the growth of beneficial bacteria (S. epidermidis): − − (50% or more growth inhibition)
[2]; diol compound 0.1 wt %
  Effect on the growth of harmful bacteria (S. aureus): +
[2]; diol compound 1 wt %
  Effect on the growth of harmful bacteria (S. aureus): +
[2]; diol compound 5 wt %
  Effect on the growth of harmful bacteria (S. aureus): +++ (50% or more inhibition)
[2]; diol compound 10 wt %
  Effect on the growth of harmful bacteria (S. aureus): +++ (50% or more inhibition)
[2]; diol compound 20 wt %
  Effect on the growth of harmful bacteria (S. aureus): +++ (50% or more inhibition)

## OCCCO [1,3-propanediol]
[3]; 0.05 wt %
  Effect on the growth of harmful bacteria (S. aureus): No effect
[3]; 0.1 wt %
  Effect on the growth of harmful bacteria (S. aureus): No effect
[3]; 0.2 wt %
  Effect on the growth of harmful bacteria (S. aureus): No effect
[3]; 0.5 wt %
  Effect on the growth of harmful bacteria (S. aureus): No effect
[3]; 1.0 wt %
  Effect on the growth of harmful bacteria (S. aureus): No effect
[3]; 3.0 wt %
  Effect on the growth of harmful bacteria (S. aureus): Inhibited
[3]; 5.0 wt %
  Effect on the growth of harmful bacteria (S. aureus): Inhibited
[3]; 10 wt %
  Effect on the growth of harmful bacteria (S. aureus): Inhibited
[3]; 20 wt %
  Effect on the growth of harmful bacteria (S. aureus): Inhibited
[3]; 25 wt %
  Effect on the growth of harmful bacteria (S. aureus): Inhibited
[3]; single culture
  Concentration that did not inhibit the growth of S. aureus: ≤ 1.0 wt %
[1]; diol compound 0.1 wt %
  Effect on the growth of beneficial bacteria (S. epidermidis): ++
[1]; diol compound 1 wt %
  Effect on the growth of beneficial bacteria (S. epidermidis): ++
[1]; diol compound 5 wt %
  Effect on the growth of beneficial bacteria (S. epidermidis): +
[1]; diol compound 10 wt %
  Effect on the growth of beneficial bacteria (S. epidermidis): +
[1]; diol compound 20 wt %
  Effect on the growth of beneficial bacteria (S. epidermidis): +
[1]; [9]
  Growth of beneficial bacteria (summary): the growth of beneficial bacteria is promoted
[4]
  Effect on the growth of beneficial bacteria (S. epidermidis): + (Mild growth promotion (change in absorbance (increase) 3%))
[2]; diol compound 0.1 wt %
  Effect on the growth of harmful bacteria (S. aureus): ++
[2]; diol compound 1 wt %
  Effect on the growth of harmful bacteria (S. aureus): ++
[2]; diol compound 5 wt %
  Effect on the growth of harmful bacteria (S. aureus): +++ (50% or more inhibition)
[2]; diol compound 10 wt %
  Effect on the growth of harmful bacteria (S. aureus): +++ (50% or more inhibition)
[2]; diol compound 20 wt %
  Effect on the growth of harmful bacteria (S. aureus): +++ (50% or more inhibition)
[2]; [9]
  Growth of harmful bacteria (summary): the growth of harmful bacteria is inhibited
[5]
  Effect on the growth of beneficial bacteria (S. epidermidis): + (Mild growth promotion (change in absorbance (increase) 3%))
[6]
  Effect on the growth of harmful bacteria (S. aureus): ++ (Significant growth inhibition (change in absorbance (decrease) 5%))
[7]; 0.05 wt %
  Effect on the growth of beneficial bacteria (S. epidermidis): No effect
[7]; 0.1 wt %
  Effect on the growth of beneficial bacteria (S. epidermidis): Promoted
[7]; 0.2 wt %
  Effect on the growth of beneficial bacteria (S. epidermidis): Promoted
[7]; 0.5 wt %
  Effect on the growth of beneficial bacteria (S. epidermidis): Promoted
[7]; 1.0 wt %
  Effect on the growth of beneficial bacteria (S. epidermidis): Promoted
[7]; 3.0 wt %
  Effect on the growth of beneficial bacteria (S. epidermidis): Promoted
[7]; 5.0 wt %
  Effect on the growth of beneficial bacteria (S. epidermidis): Promoted
[7]; 10 wt %
  Effect on the growth of beneficial bacteria (S. epidermidis): Promoted
[7]; 20 wt %
  Effect on the growth of beneficial bacteria (S. epidermidis): No effect
[7]; 25 wt %
  Effect on the growth of beneficial bacteria (S. epidermidis): Inhibited
[7]; single culture
  Concentration that inhibited the growth of S. epidermidis: exceeded 25 wt %
[8]
  Effect on the growth of harmful bacteria (S. aureus): ++ (Significant growth inhibition (change in absorbance (decrease) 5%))

## CCCCC(O)CO (stereo not shown) [1,2-hexanediol]
[1]; diol compound 0.1 wt %
  Effect on the growth of beneficial bacteria (S. epidermidis): ++
[1]; diol compound 1 wt %
  Effect on the growth of beneficial bacteria (S. epidermidis): −
[1]; diol compound 5 wt %
  Effect on the growth of beneficial bacteria (S. epidermidis): − − (50% or more growth inhibition)
[1]; diol compound 10 wt %
  Effect on the growth of beneficial bacteria (S. epidermidis): − − (50% or more growth inhibition)
[1]; diol compound 20 wt %
  Effect on the growth of beneficial bacteria (S. epidermidis): − − (50% or more growth inhibition)
[2]; diol compound 0.1 wt %
  Effect on the growth of harmful bacteria (S. aureus): +
[2]; diol compound 1 wt %
  Effect on the growth of harmful bacteria (S. aureus): ++
[2]; diol compound 5 wt %
  Effect on the growth of harmful bacteria (S. aureus): +++ (50% or more inhibition)
[2]; diol compound 10 wt %
  Effect on the growth of harmful bacteria (S. aureus): +++ (50% or more inhibition)
[2]; diol compound 20 wt %
  Effect on the growth of harmful bacteria (S. aureus): +++ (50% or more inhibition)
